{
  "source": "patent US11246873B2",
  "about": "“Directed differentiation of oligodendrocyte precursor cells to a myelinating cell fate” (The Scripps Research Institute, priority 2011, dated 2022)",
  "key": {"[1]": {"system": "rat optic nerve derived OPCs", "assay": "High content imaging assay of OPC differentiation (MBP immunostaining, OPERA)", "type": "cell-based", "conditions": "OPCs in differentiation medium (2 ng/ml PDGF), 6 days", "procedure": "FIG. 1A-C. […] The calculated EC50 values were determined using appropriate Graphpad Prism 5.0 curve fitting software. […] OPCs were plated in 384 well plates at 1000 cells per well in OPC media containing basal PDGF-αα (2 ng/mL) and treated with serial dilutions of compounds. Following six days of compound treatment, cells were fixed and subjected to immunofluorescence analysis using anti-myelin basic protein (MBP) antibody. Image acquisition and quantification of MBP staining was performed using the OPERA imaging system.\nFIG. 11A-B. Screen to identify inducers of OPC differentiation. (A) OPCs were maintained as proliferating A2B5-positive cells under basal growth conditions (Neurobasal medium, B27 supplement without Vitamin A, non-essential amino acids, L-Glutamine, 30 ng/ml PDGF). OPCs were plated in basal differentiation media (Neurobasal medium, B27 supplement without Vitamin A, non-essential amino acids, L-Glutamine, 2 ng/ml PDGF), treated with DMSO (<0.1%) or thyroid hormone (1 uM), fixed after 6 days in culture, and stained using antibodies for CNP, O4, or MBP. […] (B) Screen strategy using A2B5 positive OPCs cultured under basal differentiation conditions and treated with compounds for 6 days to identify small molecules that induce the differentiation of OPCs to mature, MBP expressing oligodendrocytes.\nFIG. 12A-B. Primary hit confirmation. (A) Dose response assay used to confirm primary screening hits and determine potency (EC50). (EC50) is defined as the concentration that results in a half maximal increase in the percentage of total cells that express MBP as detected by immunostaining. […] Cells were fixed and immunostained using antibodies for MBP. Error bars represent standard deviations from 3 replicate experiments. […]\nFIG. 21. […] OPCs were plated in differentiation medium (2 ng/ml PDGF) and treated with various concentrations of compounds for 6 days. Cells were fixed and immunostained for MBP.\nA large-scale small molecule screen was conducted to identify small molecules that promote the differentiation of oligodendrocyte precursor cells (OPCs) to a mature myelinating fate. High content imaging was used to detect in-well differentiation of rat optic nerve derived OPCs. Rat optic nerve derived OPCs were expanded en masse in OPC media containing 30 ng/mL PDGFαα. To screen for small molecule inducers of OPC differentiation, OPCs (cultured for fewer than 15 passages) were plated in poly-D-lysine coated 384 well culture plates in OPC Media containing 2 ng/mL PDGFαα and immediately treated with compounds at a final concentration of 6 μM (0.6% DMSO). Compound treated cells were incubated at 37° C., 5% CO2 for 6 days. At the end of 6 days, cells were fixed in 4% paraformaldehyde and subjected to immunofluorescence analysis. Anti-Myelin Basic Protein monoclonal antibody (a.a. 129-138, clone 1 monoclonal antibody, Millipore) (1:1000 dilution) in blocking buffere solution (3% BSA, 0.3% Triton X-100 in PBS) was added to fixed and washed cells and incubated at 4° C. overnight."}, "OPCs": {"system": "OPCs", "assay": "qRT-PCR of MBP and MOG expression in compound treated OPCs", "type": "cell-based, rat", "conditions": "EC90 concentrations, 6 days", "from_the_text": "FIG. 2A-C. […] (A) Western blot analysis of OPCs treated with compounds at EC90 concentrations for 6 days. Total protein was isolated from cell pellets and probed for myelin basic protein (MBP) and myelin oligodendrocyte glycoprotein (MOG) using specific antibodies. (B-C) Quantitative RT-PCR (qRT-PCR) analysis of OPCs treated with compounds at EC90 concentrations for 6 days. Total RNA was isolated from cell pellets and reverse transcribed. MBP and MOG expression was quantified using specific probes and Taqman-based qRT-PCR. Expression was normalized to the internal controls β-actin and GAPDH. Fold change in gene expression over DMSO treated control cells is plotted for MBP (B) and MOG (C)."}, "PLP induced EAE mice": {"system": "PLP induced EAE mice", "conditions": "for clinical severity versus vehicle, prophylactic mode: 10 mg/kg i.p. daily from the day of PLP injection; for dose dependence of clinical EAE scores: various doses i.p. (FTY720 1, 0.1, 0.01 mg/kg; interferon-β 10,000, 3000, 1000 U per mouse)", "procedure": "(A-E) SJL mice were immunized with proteolipid peptide (PLP) and pertussis toxin and monitored daily with scoring on the standard clinical EAE scale (0-5). Compounds were administered daily for the duration of the study in saline at 10 mg/kg via intra-peritoneal injection (0.1 ml), starting on the day of the appearance of clinical EAE symptoms (day 10). […] Mean clinical EAE score and standard error of mean (SEM) are shown for each study group.\nFIG. 25. […] EAE was induced in mice using PLP and pertussis toxin. […] Prophylactic dosing is defined as administration of compound commenced on the day of PLP injection. Error bars indicate standard deviation of the mean within each group of 8 mice.\n(A-F) EAE was induced in mice using PLP and pertussis toxin. […] Error bars indicate standard deviation of the mean within each group of 8 mice.\n(A-F) EAE was induced in mice by injecting PLP in complete Freund's adjuvant (CFA) and pertussis toxin, and the animals were scored daily for clinical severity of disease on a scale of 0-5. […] Error bars indicate standard deviation of the mean within each group of 8-10 mice.\n10 week old SJL mice were immunized with PLP emulsion and pertusis toxin to induce EAE. […] Compounds were administered daily via intraperitoneal injection of 100 ul in sterile saline at 10 mg/kg alone or in combination with mycophenolate motefil in sterile saline at pH 5 at 20 mg/kg. Compound administration was initiated at disease onset (day 10) while mycophenolate motefil administration was initiated on Day 14. The mice were scored daily on a standard EAE scale of 0-5.\nThis model is most commonly used to evaluate the potential efficacy of immunomodulatory agents, but can also be used to determine the effectiveness of promyelinating agents that function by enhancing OPC differentiation (M. Fernandez et al., Proc Natl Acad Sci U.S.A, 101, 16363 (2004); X. Lee et al., J Neurosci, 27, 220 (2007); reviewed in R. J. Franklin, C. Ffrench-Constant, Nat Rev Neurosci, 9, 839 (2008)). […] We next evaluated efficacy when the drug is dosed therapeutically, by starting daily injections at the first sign of disease onset.\nFor the treatment of MS, an OPC differentiation inducing drug would most likely be introduced clinically as part of a combination therapy with an immunosuppressive drug. […] The former reduces T-cell proliferation and alters cytokine expression (A. Noronha, A. Toscas, M. A. Jensen, J Neuroimmunol, 46, 145 (1993); A. Noronha, A. Toscas, M. A. Jensen, Ann Neurol, 27, 207 (1990)), while the latter is an S1P agonist that regulates T-cell trafficking (V. Brinkmann et al., J Biol Chem, 277, 21453 (2002); V. Brinkmann et al., Nat Rev Drug Discov, 9, 883 (2010))."}},
  "note": "“Also recorded” adds a separate entry of the source. Read-outs that look alike come from different tables or passages of the source.",
  "data": [
    {"molecule": "CN1CCN(CCCN2c3ccccc3Sc3ccc(C(F)(F)F)cc32)CC1", "note": "[trifluoperazine]", "values": [
      {"measurement": "induction of OPC differentiation (MBP staining)", "setting": "[1]", "value": "promote OPC differentiation"},
      {"measurement": "induction of MBP expression (qRT-PCR) over DMSO", "setting": "OPCs", "value": "two-fold"},
      {"measurement": "induction of MOG expression (qRT-PCR) over DMSO", "setting": "OPCs", "value": "two-fold"},
      {"measurement": "recovery time following the acute phase", "setting": "PLP induced EAE mice; 10 mg/kg i.p. daily from day 10", "value": "modest decrease"},
      {"measurement": "mean maximal clinical EAE score in relapse, day 26", "setting": "PLP induced EAE mice; SJL mice, scale 0-5, 10 mg/kg i.p. daily from day 10, mean ± SEM", "value": "0.4±0.4"}
    ]},
    {"molecule": "CN1[C@@H]2CC[C@H]1C[C@@H](OC(c1ccccc1)c1ccccc1)C2", "note": "[benztropine]", "values": [
      {"measurement": "induction of OPC differentiation (MBP staining)", "setting": "[1]", "value": "promote OPC differentiation; also recorded: dose dependent activity"},
      {"measurement": "induction of MBP expression (qRT-PCR) over DMSO", "setting": "OPCs", "value": "two-fold"},
      {"measurement": "induction of MOG expression (qRT-PCR) over DMSO", "setting": "OPCs", "value": "two-fold"},
      {"measurement": "effect on clinical severity scores at 0.1 mg/kg", "setting": "PLP induced EAE mice; 0.1 mg/kg", "value": "no effect"},
      {"measurement": "clinical severity versus vehicle, prophylactic mode", "setting": "PLP induced EAE mice", "value": "significantly decreased clinical severity in both acute and relapse phase"},
      {"measurement": "clinical severity versus vehicle, prophylactic mode", "setting": "PLP induced EAE mice; listed as Benztropine", "value": "dramatically decreased the severity of the acute phase of disease and virtually eliminated the observation of a relapse phase; also recorded: decreased the clinical severity of disease"},
      {"measurement": "mean maximal clinical EAE score in relapse, day 25", "setting": "PLP induced EAE mice; SJL mice, scale 0-5, compounds 10 mg/kg i.p. daily from day 10, mycophenolate mofetil 20 mg/kg from day 14, mean ± SEM", "value": "0.2±0.2"},
      {"measurement": "most effective dose in decreasing clinical severity scores", "setting": "PLP induced EAE mice; dose response in EAE model", "value": 12.5, "unit": "mg/kg"},
      {"measurement": "general toxicity", "setting": "PLP induced EAE mice; mouse, in vivo, 10 mg/kg", "value": "general toxicity was not observed"},
      {"measurement": "dose dependence of clinical EAE scores", "setting": "PLP induced EAE mice", "value": "Dose dependent activity"},
      {"measurement": "dose dependence of clinical EAE scores", "setting": "PLP induced EAE mice; listed as Benztropine", "value": "dose dependent efficacy"}
    ]}
  ]
}
